# According to US20170079989A1, “METHOD FOR TREATMENT OF OSTEOARTHRITIS AND OTHER JOINT RELATED INJURIES AND CONDITIONS” (priority 2010, published 2017):
# Entries after “also recorded” stand apart in the source; their conditions may differ.
# How the values were obtained:
# [1] = In vitro release (elution testing) of injectable formulations in sterile PBS at 37 degrees C.; format: physicochemical; conditions: drug encapsulated in SAIB nanoparticles suspended in hyaluronic acid solution, dialysis tubing, 50 rpm, UV-Vis
# Protocol: About 21 mg of curcumin was dissolved in 2 ml of DMSO/SAIB (9:1 ratio of DMSO to SAIB in ethanol). The concentration of SAIB in the solution was about 104 mg per ml of DMSO/SAIB/Ethanol solution. This solution of curcumin/DMSO/SAIB/Ethanol was added drop wise to PBS while stirring. The nanoparticles of curcumin/SAIB formed when the DMSO/ethanol diffused out into the PBS (FIG. 3). 0.5 ml of the nanoparticle solution was then mixed with 2.5 ml of 1% Hyaluronic acid (HA) in PBS. The final mixture was then used for testing of injectability and for elution study.
# Elution testing of various injectable formulations as described in example 2 was carried out in sterile PBS and at 37 degrees C. Drugs such as rapamycin, curcumin and sulfasalazine were used in the testing of various formulations. Each formulation was pipetted into a segment of dialysis tubing (Sigma Cat. D0530) with both ends of the tubing sealed. The dialysis tubing with the formulation was then placed inside a container and 15 ml of sterile PBS was added to the container. The container was then placed in an incubator shaker at 37 degrees C., 50 rpm and samples were withdrawn at regular time intervals and replaced with fresh sterile PBS. The samples were measured photometrically (UV-Vis) at a wavelength of 420 nanometers for curcumin, 359 nanometers for sulfasalazine and 278 nanometers for rapamycin.
# [2] = cited from earlier work
# [3] = Injectable formulation of sulfasalazine in SAIB/DMSO injected into an aqueous environment; format: physicochemical; conditions: drug/DMSO mixed 1:1 with SAIB gel (90% in ethanol)
# Text: FIG. 2 is a drawing of the injectable formulation of FIG. 1 when injected into an aqueous environment. The liquid formulation of drug, DMSO and SAIB formed a liquid gel after the ethanol component in the SAIB and DMSO diffused out into the water. […] Controlled release of the drug over a long period of time can be beneficial to treat chronic inflammation in osteoarthritis. A known amount of sulfasalazine was weighed and dissolved in DMSO. This solution of sulfasalazine/DMSO was then mixed in 1:1 ratio with SAIB gel (90% by weight in ethanol). The mixture as shown in FIG. 1 can be loaded into a syringe and injected through a 20 GA needle. The mixture formed a gel that encapsulated the drug after the solvents (DMSO and ethanol) diffused out of the aqueous environment (FIG. 2).
Compound,release kinetics of drug from the injectable formulation [1],water solubility [2],release of drug from the SAIB gel [3]
"COc1cc(/C=C/C(=O)CC(=O)/C=C/c2ccc(O)c(OC)c2)ccc1O [curcumin, Curcumin]",released over an extended period of time; also recorded: controlled release manner,,
"O=C(O)c1cc(/N=N/c2ccc(S(=O)(=O)Nc3ccccn3)cc2)ccc1O [sulfasalazine, Sulfasalazine]",high at the beginning and level off quickly in a few days,slightly water soluble,slowly diffused out of the gel in a controlled release manner
